Experimental data reported in publication PMC12174897, “Hitting Two Birds With One Stone: Dual Modulation of Brain Carbonic Anhydrases and Histone Deacetylases Boosts Memory Consolidation” (Archiv Der Pharmazie, 2025).

Tests used:
[1] = tested on: CA activity in cortical and hippocampal brain homogenates; experiment: Ex vivo CA activity in brain homogenates after i.c.v. infusion (stopped-flow); settings: 50 nmol/µL, 5 µL i.c.v., 30 min after infusion; vehicle = 100%
Method: (§4) Specifically, mice were euthanized 30 min after the i.c.v. infusion, their brains were collected, and hippocampi and frontal cortices were immediately dissected on ice and then individually homogenized in 1 mL of ice‐cold 20 mM Hepes buffer (pH 7.5).
The overall catalytic activity of CAs (K cat) of each individual preparation was measured with a stopped flow spectrophotometric method monitoring the physiological CO2 hydration reaction catalyzed by these enzymes [30]
Animals were killed 30 min after drug infusion, and the brain structures were immediately dissected on ice and homogenized. CA activity was measured with a stopped‐flow method. The mean CA activity measured in the group of control mice treated with vehicle was taken as 100%, the activities measured for animals treated with compounds were normalized to this value. Data are expressed as means ± S.E.M. of six–nine mice per experimental group. One‐way ANOVA and Bonferroni MCT, **p < 0.01 versus vehicle.
In the infusion days, a stainless‐steel injection micro‐needle (outer diameter 0.25 mm) connected through a polyethylene catheter to a 1000 µL Hamilton precision syringe was inserted into the cannulae previously implanted and lowered into the lateral cerebral ventricle (DV 2.4 mm). Then, 5 µL of a solution containing the testing compounds or vehicle were delivered using an infusion pump at 1 µL/min flow. The needle was left in place for one additional minute after each infusion to avoid efflux. Thirty minutes after drug injections, the animals were euthanized, their brain immediately removed, the cortices and hippocampi were rapidly dissected on ice, weighted, and stored at –80°C until use.
Animals pertaining to the control group received infusions of vehicle (physiological saline containing 1% DMSO (v/v)).
Brain tissues were homogenized in 1.0 mL of ice‐cold 20 mM Hepes buffer (pH 7.5). After centrifugation at 20,000g for 30 min, an Applied Photophysics stopped‐flow instrument was used for assaying the CA‐catalyzed CO2 hydration activity from the samples as previously described [23, 34]. […] The mean CA activity determined in the brain samples from the control group of mice treated with vehicle was set as 100% and all the individual calculated values were then expressed as a percentage of controls.

hCA II = target: T1, hCA II (Homo sapiens, UniProt P00918); experiment: stopped-flow CO2 hydrase assay, CA activation; format: biochemical; settings: for K A hCA II: activation constant, mean from three assays, errors ±5%–10%
T1 construct: purchased

[2] = tested on: HDAC activity of HeLa nuclear extract; experiment: Fluor de Lys-Green HDAC assay kit, HDAC inhibition; format: biochemical
Method: (§1) HeLa nuclear extract, rich in HDAC activity, is included with the kit. Trichostatin A solution was used as a positive control and model inhibitor. Plates were read with excitation at 380 nm and emission at 440 nm on a TECAN Spark multimode microplate reader. Histone deacetylase activity was measured according to the manufacturer's instructions.
as §1, with “Spark®” for “Spark”, “to” for “to the”

Male C57Bl6 mice = experiment: Novel object recognition (NOR) paradigm, memory consolidation; format: in vivo; parameters: key to Discrimination index (DI): DI = (tN − tF)/(tN + tF); novel vs familiar exploration time; settings: for Discrimination index (DI): 5 µL i.c.v., retention test 24 h, vehicle −0.057 ± 0.069; for percentage of time spent exploring familiar vs novel object, retention test: 5 µL i.c.v. immediately after acquisition, retention test 24 h later
Method: This set of experiments was designed to evaluate the impact of single reference compounds (D‐Phe and 19) as well as the dual acting (12 and 14) on recognition memory. These compounds were administered directly into the brain lateral ventricles immediately after the acquisition session to investigate their impact specifically on memory consolidation. […] Such a design avoids the use of amnestic drugs that could interfere with data interpretation and represents an advantage when studying the procognitive potential of novel compounds. The dose range and administration route were also chosen based on previous reports showing that the procognitive effects of CA and HDAC modulators rely on their action on centrally and not peripherally expressed enzymes. Moreover, the injection of the tested compounds directly into the lateral ventricles (i.c.v.) consents widespread drug distribution in the brain and at the same time minimizes potential interference of peripheral phenomena such as barriers crossing, protein binding, drug metabolism, that are highly influenced by specific drug characteristics such as size, solubility, charge. Therefore, the i.c.v. route represents an advantage in studies comparing the potency of compounds by ensuring precise control of drug concentrations in the target organ and excluding confounding factors related to peripheral pharmacokinetic mechanisms.
Figure 5 Dual modulation of CAs and HDACs potently boost recognition memory in mice. (A) Schematic drawing showing the sequence of the behavioral procedures: immediately after the acquisition phase mice received infusions (5 µL) of solutions containing either vehicle, the CA activator D‐Phe, the HDAC inhibitor 19 dual acting compounds 12 and 14 at 0.5, 5, or 50 nmol/µL concentrations. The retention test was performed 24 h later. (B) Percentages of time spent exploring the familiar (F) or novel (N) objects during the retention test. The dashed line indicates a theoretical means of 50%. Statistically significant differences determined by two‐way ANOVA and Bonferroni's MCT: ****p < 0.0001 F versus N. (C) Discrimination indexes calculated with the formula DI = (tN tF)/(tN + tF). Statistically significant differences determined by one‐way ANOVA and Bonferroni's MCT: *p < 0.05; **p < 0.01 versus vehicle‐treated group. In both graphics, data are expressed either as individual data points for each animal (scattered plot) znc means ± SEM represented by bar graphs. N = 6–9 animals by experimental group.
Male C57Bl6 mice were submitted to the stereotaxic surgery to implant a guide cannula into the brain lateral ventricles as described above. One week after the surgery, their behavior was assessed in an open‐field arena (60 × 70 cm and 30 cm high) constructed in white acrylic Plexiglass and placed in a sound‐attenuated room. The detailed experimental procedure is already published. The NOR protocol consists of three sessions: habituation, acquisition, and retention test separated by 24 h intertrial intervals. During habituation, the animals freely explored the empty arena for 10 min. Twenty‐four hours later, each animal was placed in the same position and facing the same direction into the test arena in the presence of two identical objects (gray plastic shapes such as cubes, cylinders, or pyramids 8 cm high) and left free to explore it for 5 min. […] The retention test session was performed 24 h after acquisition, during which, each mouse was again placed in the test arena for 5 min in the presence of one of the familiar object and a novel object. The position of the new objects (left/right) was randomized to prevent bias from order or place preference.

hCA VA = target: T2, hCA VA (Homo sapiens, UniProt P35218); experiment: stopped-flow CO2 hydrase assay, CA activation; format: biochemical; settings: for K A hCA VA: activation constant, mean from three assays, errors ±5%–10%
T2 construct: made in house
Method: (§2) . The potencies were reported as K A values in Table 1 and compared with the reference compound D‐Phe. AC50 curves are reported in the Supporting Information.
(§3) . The uncatalyzed rates were determined in the same manner and subtracted from the total observed rates. Stock solutions of the inhibitor (0.1 mM) were prepared in distilled–deionized water and dilutions up to 0.01 nM were done thereafter with the assay buffer. Inhibitor and enzyme solutions were preincubated together for 15 min at r.t. before the assay, to allow for the formation of the E–I complex. The inhibition constants were obtained by nonlinear least‐squares methods using PRISM 3 and the Cheng‐Prusoff equation [41] and represent the mean from at least three different determinations. Apart from commercial hCAs I and II, all CA isoforms were recombinant proteins obtained in house, as reported earlier.
as §3, with “prior to” for “before”, “least-squares” for “least‐squares”, “Cheng-Prusoff” for “Cheng‐Prusoff”, “[2]” for “[41]”

hCA IV = target: T3, hCA IV (Homo sapiens, UniProt P22748); experiment: stopped-flow CO2 hydrase assay, CA activation; format: biochemical; settings: for K A hCA IV: activation constant, mean from three assays, errors ±5%–10%
T3 construct: made in house
Method: as §2, §3
as §3, with “prior to” for “before”, “least-squares” for “least‐squares”, “Cheng-Prusoff” for “Cheng‐Prusoff”, “[2]” for “[41]”

hCA VII = target: T4, hCA VII (Homo sapiens, UniProt P43166); experiment: stopped-flow CO2 hydrase assay, CA activation; format: biochemical; settings: for K A hCA VII: activation constant, mean from three assays, errors ±5%–10%
T4 construct: made in house
Method: as §2, §3
as §3, with “prior to” for “before”, “least-squares” for “least‐squares”, “Cheng-Prusoff” for “Cheng‐Prusoff”, “[2]” for “[41]”

hCA IX = target: T5, hCA IX (Homo sapiens, UniProt Q16790); experiment: stopped-flow CO2 hydrase assay, CA activation; format: biochemical; settings: activation constant; mean from three assays, errors ±5%–10%
T5 construct: made in house

hCA I = target: T6, hCA I (Homo sapiens, UniProt P00915); experiment: stopped-flow CO2 hydrase assay, CA activation; format: biochemical; settings: for K A hCA I: activation constant, mean from three assays, errors ±5%–10%
T6 construct: purchased

[3] = tested on: HDAC activity in hippocampal and cortical brain homogenates; experiment: Ex vivo HDAC residual activity in brain homogenates after i.c.v. infusion (fluorometric); settings: 50 nmol/µL, 5 µL i.c.v., 30 min after infusion; vehicle = 100%
Method: as §4
Animals were killed 30 min after drug infusion, and the brain structures were immediately dissected on ice and homogenized. HDAC activity was measured with the fluorometric method. The HDAC mean activity of the control group mice was taken as 100%, % of the activities measured for animals treated with compounds were normalized to this value. Data are expressed as means ± S.E.M. of 6–13 mice per experimental group. One‐way ANOVA and Bonferroni MCT, ****p < 0.0001 versus vehicle‐treated group. […]
The residual enzymatic activity in brain tissues was measured using Fluor de Lys‐Green HDAC fluorometric activity assay kit purchased from Enzo Life Sciences (Farmingdale, NY). […] Measurements were performed using a TECAN Spark multimode microplate reader, set to a wavelength of 280 nm. Once the absorbance was measured, the concentration of the enzyme HDAC contained in the brain homogenates was calculated according to Lambert‐Beer's law. […] Fluorescence was measured at 380 nm and detected at 440 nm. Each test included a blank as a reference for minimal fluorescence, containing only buffer and substrate, thus lacking any protein component [49, 50]. […]

[4] = mean from three assays, errors 5%–10%
[5] = supplement InChI file, given as KI

T6 sequence (P00915 whole entry): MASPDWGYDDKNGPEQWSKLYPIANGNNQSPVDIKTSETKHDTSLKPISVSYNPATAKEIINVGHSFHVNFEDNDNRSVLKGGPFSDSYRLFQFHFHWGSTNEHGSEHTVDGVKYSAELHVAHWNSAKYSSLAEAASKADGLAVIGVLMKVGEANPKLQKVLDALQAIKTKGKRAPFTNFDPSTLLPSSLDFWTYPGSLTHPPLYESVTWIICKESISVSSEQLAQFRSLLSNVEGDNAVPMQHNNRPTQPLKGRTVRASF
T4 sequence (P43166 whole entry): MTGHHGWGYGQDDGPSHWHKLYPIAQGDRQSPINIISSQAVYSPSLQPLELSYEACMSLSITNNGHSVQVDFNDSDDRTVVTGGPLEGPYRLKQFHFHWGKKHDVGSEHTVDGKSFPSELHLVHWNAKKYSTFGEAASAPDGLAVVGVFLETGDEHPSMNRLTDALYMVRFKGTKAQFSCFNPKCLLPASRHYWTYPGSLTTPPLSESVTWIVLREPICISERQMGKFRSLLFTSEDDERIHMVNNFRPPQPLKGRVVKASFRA
T3 sequence (P22748 19-312): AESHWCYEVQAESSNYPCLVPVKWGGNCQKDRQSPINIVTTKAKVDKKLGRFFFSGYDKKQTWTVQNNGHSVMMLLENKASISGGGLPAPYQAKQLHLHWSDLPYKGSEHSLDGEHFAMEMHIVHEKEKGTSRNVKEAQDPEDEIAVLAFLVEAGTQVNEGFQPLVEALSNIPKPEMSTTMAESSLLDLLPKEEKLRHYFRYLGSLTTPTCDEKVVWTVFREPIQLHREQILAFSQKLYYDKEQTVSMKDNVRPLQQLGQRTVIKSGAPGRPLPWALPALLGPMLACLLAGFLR
T2 sequence (P35218 39-305): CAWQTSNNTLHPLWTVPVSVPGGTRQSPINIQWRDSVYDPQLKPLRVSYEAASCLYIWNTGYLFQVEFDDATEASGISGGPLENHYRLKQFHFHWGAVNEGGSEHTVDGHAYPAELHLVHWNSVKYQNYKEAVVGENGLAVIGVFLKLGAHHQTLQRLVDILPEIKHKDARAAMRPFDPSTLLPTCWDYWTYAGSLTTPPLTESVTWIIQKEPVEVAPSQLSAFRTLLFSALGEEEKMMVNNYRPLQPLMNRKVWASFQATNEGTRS

SMILES	CA activity (%) in cortical homogenates versus vehicle [1]	CA activity (%) in hippocampal homogenates versus vehicle [1]	K A hCA II (hCA II) [µM]	EC50 [2, 4] [µM]	Discrimination index (DI) (Male C57Bl6 mice; 0.5 nmol/µL)	Discrimination index (DI) (Male C57Bl6 mice; 5 nmol/µL)	percentage of time spent exploring familiar vs novel object, retention test (Male C57Bl6 mice; 5 nmol/μL)	Discrimination index (DI) (Male C57Bl6 mice; 50 nmol/µL)	percentage of time spent exploring familiar vs novel object, retention test (Male C57Bl6 mice; 50 nmol/μL)	K A hCA VA (hCA VA) [µM]	K A hCA IV (hCA IV) [µM]	K A hCA VII (hCA VII) [µM]	K A hCA IX (hCA IX) [µM]	K A hCA I (hCA I) [µM]	further results
Nc1cc(F)ccc1NC(=O)c1ccc(NC(=O)NCCc2c[nH]cn2)cc1.[O-][Cl+3]([O-])([O-])O.[O-][Cl+3]([O-])([O-])O [Compound 14, 4‐{3‐[2‐(1H‐Imidazol‐4‐yl)Ethyl]Ureido}‐N‐(2‐Amino‐4‐Fluorophenyl)Benzamide Diperchlorate]	significantly increased	significantly increased	49.5	5.3	−0.026 ± 0.274	0.317 ± 0.132	spent significantly more time exploring the novel object	0.224 ± 0.223	spent significantly more time exploring the novel object	37.9	49.1	26.1	> 10000	53.8	fold more potent activator of hCA II (hCA II; K A of 14 compared with 12): 1.3 fold; fold more potent activator of hCA VII (hCA VII; K A of 14 compared with 12): 1.2 fold; fold more potent activator of hCA I (hCA I; K A of 14 compared with 12): 1.4 fold
CC(/C=C/C(=O)NO)=C\[C@@H](C)C(=O)c1ccc(N(C)C)cc1 [Trichostatin A, reference compound]	–	–	–	–	–	–	–	–	–	–	–	–	–	–	EC50 ([2]; reference inhibitor): 0.0018 µM
Nc1ccccc1NC(=O)c1ccc(NC(=O)NCCc2c[nH]cn2)cc1.O=C(O)C(F)(F)F [Compound 12, 2‐(4‐{3‐[2‐(1H‐imidazol‐4‐yl)ethyl]ureido}benzamido)benzenaminium 2,2,2‐trifluoroacetate]	significantly increased	significantly increased	66.8	2.8	−0.077 ± 0.078	0.288 ± 0.110	spent significantly more time exploring the novel object	0.313 ± 0.173	spent significantly more time exploring the novel object	> 10000	23.0	32.0	68.8	75.4	–
N[C@H](Cc1ccccc1)C(=O)O [D‐Phe, reference compound]	significantly increased	significantly increased	0.035	–	–	–	–	–	promnesic effect	–	49.3	–	–	86.0	–
Nc1ccccc1NC(=O)c1ccc(NCC(=O)NCCc2ccccc2)cc1 [Compound 19, N‐(2‐Aminophenyl)‐4‐{[2‐Oxo‐2‐(Phenethylamino)Ethyl]Amino}Benzamide]	no differences were observed	no differences were observed	–	14.2	–	–	–	–	promnesic effect	> 10000	> 10000	> 10000	–	–	HDAC residual activity (%) in cortical homogenates versus vehicle [3]: significant reduction; HDAC residual activity (%) in hippocampal homogenates versus vehicle [3]: significant reduction; KA (activation constant) (hCA VA; [5]): > 10 mM; activation constant KA (hCA IV; [5]): > 10 mM; activation constant KA (hCA VII; [5]): > 10 mM
